In the NIST ThermoML archive (doi:10.1021/je700123q):
Numbers after ± are expanded uncertainties. One block for each compound: values may come before it.

Legend:
[1] = Liquid; for Critical pressure: Direct measurement; for Critical temperature: Visual observation in an unstirred cell
[2] = xn = mol fraction of the nth substance listed; settings: Liquid

Critical density [1]: 459 ± 5 kg/m3 | Critical pressure [1]: 3640 ± 6 kPa | Critical temperature [1]: 377.92 ± 0.06 K
SMILES: COC(F)(F)F [trifluoromethoxymethane]

SMILES: FC(OC(F)(F)F)C(F)(F)F (stereo not drawn) [1,1,1,2-tetrafluoro-2-(trifluoromethoxy)ethane] + COC(F)(F)F
Critical density ([2]; x1 = 0.1455): 480 ± 6 kg/m3 | Critical density ([2]; x1 = 0.2585): 506 ± 6 kg/m3 | Critical density ([2]; x1 = 0.4147): 523 ± 6 kg/m3 | Critical density ([2]; x1 = 0.5954): 539 ± 6 kg/m3 | Critical density ([2]; x1 = 0.7403): 558 ± 7 kg/m3 | Critical density ([2]; x1 = 1): 580 ± 7 kg/m3

SMILES: COC(F)(F)C(F)(F)F [methyl pentafluoroethyl ether]
Critical density [1]: 491 ± 6 kg/m3 | Critical pressure [1]: 2885 ± 6 kPa | Critical temperature [1]: 406.82 ± 0.06 K

SMILES: FC(OC(F)(F)F)C(F)(F)F (stereo not drawn) [1,1,1,2-tetrafluoro-2-(trifluoromethoxy)ethane]
Critical density [1]: 580 ± 4 kg/m3 | Critical pressure [1]: 2621 ± 4 kPa | Critical temperature [1]: 377.26 ± 0.06 K

SMILES: COC(F)(F)C(F)(F)F [methyl pentafluoroethyl ether] + FC(OC(F)(F)F)C(F)(F)F
Critical density ([2]; x2 = 0): 491 ± 6 kg/m3

Critical density ([2]; x2 = 0): 459 ± 5 kg/m3
SMILES: COC(F)(F)F [trifluoromethoxymethane] + FC(OC(F)(F)F)C(F)(F)F

SMILES: FC(OC(F)(F)F)C(F)(F)F (stereo not drawn) [1,1,1,2-tetrafluoro-2-(trifluoromethoxy)ethane] + COC(F)(F)C(F)(F)F
Critical density ([2]; x1 = 0.1694): 510 ± 6 kg/m3 | Critical density ([2]; x1 = 0.2941): 521 ± 6 kg/m3 | Critical density ([2]; x1 = 0.4706): 536 ± 6 kg/m3 | Critical density ([2]; x1 = 0.6565): 554 ± 6 kg/m3 | Critical density ([2]; x1 = 0.7952): 566 ± 7 kg/m3 | Critical density ([2]; x1 = 1): 580 ± 7 kg/m3
